Assay results: patent US5424073A (Georgetown University, priority 1993, dated 1995)
Values after ≈ are worked out from the molar mass of the structure shown.

Key:
[1] = Stability studies of liposomal and free taxol; format: physicochemical; conditions: free taxol 0.6 mg/ml in saline
Male CD2 F1 mice = assay: Toxicity evaluation of free and liposomal taxol in normal mice; format: in vivo, mouse; conditions: 25 mg/kg i.v., repeated day 5 and 9
Experimental: Male CD2 F1 mice weighing 22-25 gm were used in this study. […] Taxol liposomes were prepared using cardiolipin, phosphatidyl choline, and cholesterol. […] The same doses were repeated on mice at day 5 and 9.

[2] = tested on: HL-60 promyelocytic leukemia cells; assay: Growth inhibition (cytotoxicity) in HL-60 leukemia cells; format: cell-based; conditions: Homo sapiens; HL-60, 72 hours, 37° C., trypan blue; FIG. 3
Experimental: HL-60 promyelocytic leukemia cells were grown in tissue culture in RPM1-1640 medium supplemented with 10% fetal bovine serum. All cultures were maintained in plastic tissue culture flasks and kept in an incubator at 37° C. in humidified air containing 5% CO2.
For these experiments, 1×10^5 cells in exponential growth phase were plated into 25 cm^2 flasks. […] Cells were counted in a hemocytometer and viability was determined by trypan blue exclusion. The cell survival was compared to the control cells and IC50 (inhibitory concentration for 50% of the cells) values for each drug was determined.

HL-60 cells = format: cell-based, human; conditions: 10 μg/ml, FIG. 4
Experimental: Briefly, exponentially growing cells were incubated in 100 mm petri dishes with drug containing medium at 37° C. […] The cell pellets were suspended in 0.5 ml of 2% SDS solution and then sonicated for 5 minutes in a cup-horn sonicator. The cell homogenate was extracted with 2 ml of methanol.

HL-60/VCR cells [3] = assay: Cytotoxicity in multidrug resistant HL-60/VCR cells; format: cell-based; conditions: Homo sapiens, HL60/VCR, 72 hours, FIG. 5
Experimental: The HL-60 VCR cells were grown in media at 37° C. with 5% CO2.
After 72 hours of incubation, cells in each flask were counted by hemocytometer and viability was determined by trypan blue exclusion. Percent survival of treated cells was determined relative to untreated control. Cytotoxic activity was expressed as IC50 which was defined as the concentration of drug resulting 50% survival of the cells compared to control.

HL-60/VCR cells [4] = assay: Intracellular taxol accumulation in HL-60/VCR cells; format: cell-based, human; conditions: 4 hours
Experimental: The cells were suspended in cold PBS and counted, and centrifuged again. The cell pellets were suspended in 0.5 ml of 2% SDS solution and then sonicated for 5 minutes in a cup-horn sonicator (Heat Systems, Farmingdate, N.Y.). Resulting cell homogenate was extracted with 4 ml of methanol, vortexed for 1 minute and centrifuged for 20 minutes at 3000 rpm. The samples were read by using HPLC. The concentration of drug in […] was calculated using a standard calibration curve for drug spiked cells and were then treated similarly.

B16 melanoma = conditions: i.p. implanted; cited from earlier work
L1210 leukemia = conditions: in vivo; cited from earlier work
P388 leukemia = conditions: in vivo; cited from earlier work
[5] = tested on: human MX-1 mammary tumor xenograft; conditions: in vivo; cited from earlier work
advanced ovarian tumors = conditions: women with advanced ovarian tumors; cited from earlier work
[6] = tested on: lymphoma, ovarian and breast cancers; conditions: cited from earlier work
metastatic breast cancer = conditions: in vivo; cited from earlier work
tubulin = conditions: cited from earlier work
cell replication = conditions: in vitro; cited from earlier work
[7] = cited from earlier work
[8] = cited from earlier work; remark: listed apart in the source

## CC(=O)O[C@H]1C(=O)[C@@]2(C)[C@H]([C@H](OC(=O)c3ccccc3)[C@]3(O)C[C@H](OC(=O)[C@H](O)[C@@H](NC(=O)c4ccccc4)c4ccccc4)C(C)=C1C3(C)C)[C@]1(OC(C)=O)CO[C@@H]1C[C@@H]2O (relative stereo) [Taxol, (2aR(2aα,4β,4aβ,6β,9α(αR*,βS*) ,11α, 12α,12aα,12bα))-β-(β-(benzoylamino)-α-hydroxybenzenepropanoic acid 6,12b-bis(acetyloxy)-12-(benzoyloxy)-2a,3,4,4a,5,6,9,10,11,12,12a,12b-dodecahydro-4,11-dihydroxy-4a, 8,13,13-tetramethyl-5-oxo-7,11-methano-14-cyclodeca(3,4)benz(1,2-6)oxet-9-yl ester]
[1]
  degradation time in saline: ≤ 3 h
Male CD2 F1 mice
  sclerosis of the vein: sclerosis of the vein
Male CD2 F1 mice; ten mice per group, FIG. 2
  mortality / toxicity by day 12: three mice in the free taxol group died because of toxicity
[2]
  IC50: 0.0025 µg/mL (≈ 0.00293 µM)
HL-60 cells; 2 and 4 hours, HL-60, relative to 1 hour
  cellular concentration of taxol at 2 and 4 hours: same taxol concentration
HL-60 cells; 1 hour, HL-60
  cellular concentration of taxol at 1 hour: 5.18 μg/10^7 cells
HL-60/VCR cells [3]
  IC50: 2.43 µg/mL (≈ 2.85 µM)
HL-60/VCR cells [4]
  decrease in cellular uptake versus liposomal taxol: threefold decrease in cellular uptake
B16 melanoma
  antineoplastic activity against B16 melanoma: significant antineoplastic activity
L1210 leukemia
  antineoplastic activity against L1210 leukemia: significant antineoplastic activity
P388 leukemia
  antineoplastic activity against P388 leukemia: significant antineoplastic activity
[5]
  antineoplastic activity against MX-1 xenograft: significant antineoplastic activity
Advanced ovarian tumors
  tumor shrinkage, share of women: 30 to 40%
[6]
  activity in clinical trials: sufficient activity
Metastatic breast cancer
  treatment of metastatic breast cancer: considerable promise
tubulin
  effect on tubulin polymerization: markedly enhances all aspects of tubulin polymerization
Cell replication
  inhibition of cell replication: potent inhibitor of cell replication in vitro
[7]; antihistamine and corticosteroids, infusion six to twenty four hours
  toxicities despite pretreatment and prolonged infusion: serious toxicities which are often fatal
[7]; human, in vivo
  cardiac toxicity: treatment limiting
[8]; diluted in saline solution
  degradation time once diluted in saline: ≤ 24 h
  precipitation from dilution: the drug precipitates from dilution
[8]; water
  solubility in water: limited solubility in water
